In US20260306460A1, “COMPOSITION FOR REMOVING AND INHIBITING SENESCENT CELLS, AND USES THEREOF” (LIFECEUTIX CO., LTD., priority 2023, published 2026):

Tests used:
[1] = system: naturally aged C57BL6J mice; assay type: in vivo, mouse; conditions: mouse, in vivo
[2] = system: senescent cells; assay: Viability of senescent cells (CellTiter-Glo), Example 17, Table 13; conditions: Homo sapiens, read-out: Survival (%)
Method: Cells induced to undergo senescence by doxorubicin treatment were treated with test compound at designated concentrations and measured using the CellTiter-Glo Luminescent Cell Viability Assay (Promega).

[3] = system: carbon tetrachloride-induced liver fibrosis mice; assay: Carbon tetrachloride-induced liver fibrosis mice, Example 31, Table 57; assay type: in vivo, mouse; conditions: CCl4-induced liver fibrosis mice, untreated = 100%
Method: (§1) The control group was administered only the solution in the same volume. After the end of drug administration, the method described in each example below was performed. Liver, kidney, skin, knee joint, heart, and femur tissues were collected from mice in which natural aging was induced in the same manner as in Examples 7-2 and 7-6 of WO2023-085787 A1. Lung tissues were collected from mice in which pulmonary fibrosis was induced using the same method as in Example 24-1. Liver tissues were collected from mice in which hepatic fibrosis was induced using the same method as in Example 26, and total RNA was extracted. qRT-PCR was performed and analyzed using the synthesized cDNA. […] The mRNA amounts of p16, MMP3, and IL6 after natural aging was induced were calculated as 100% and compared with the mRNA amounts of p16, MMP3, and IL6 after treatment with the test compound. In addition, an open field test for the analysis of aging-related frailty, agtr1a mRNA analysis for kidney damage and disease evaluation, col1a1 and SDF1 mRNA analysis for skin aging evaluation such as wrinkles/loss of elasticity/hyperpigmentation, col2a1 mRNA analysis for evaluating joint aging such as osteoarthritis, sur2a mRNA analysis for evaluating cardiac aging such as decreased cardiac load resistance, ctsk mRNA analysis for evaluating bone diseases due to aging such as osteoporosis, muscle tissue weight for analyzing sarcopenia, fat tissue weight for analyzing lipoatrophy, and cataract incidence analysis were performed in mice. For cataract incidence analysis, the drug was administered twice a week under the conditions specified above, and biweekly examinations were conducted until death.

[4] = system: senescent A549 cells; assay: Viability of senescent A549 cells (CellTiter-Glo), Example 18, Table 15; conditions: Homo sapiens, A549, read-out: Survival (%)
Method: Senescence-induced cancer cells treated with doxorubicin were treated with the test compound at designated concentrations, and cell viability was measured using the CellTiter-Glo Luminescent Cell Viability Assay (Promega).

[5] = system: naturally aged mice; assay: Anti-aging evaluation in naturally aged mice, Example 31, Table 55; assay type: in vivo, mouse; conditions: for Femur Ctsk mRNA / Kidney Agtr1a mRNA / Liver IL6 mRNA / Liver MMP3 mRNA / Liver p16 mRNA / Open Field Test Time in Center: untreated = 100%; for Heart Sur2a mRNA / Joint Col2a1 mRNA / Skin Col1a1 mRNA / Skin SDF1 mRNA: untreated = 1.0; for Muscle Mass: untreated 0.64 g; for Fat Mass: untreated 0.82 g; for Cataract incidence: untreated 83%;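 as to all read-outs here: Vehicle-dosed control mice received solution alone at matching volume, values compare test-compound-treated aged mice against that control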
[6] = system: bleomycin-induced pulmonary fibrosis mice; assay: Bleomycin-induced pulmonary fibrosis mice, Example 31, Table 56; assay type: in vivo, mouse; conditions: untreated = 100%
Method: as §1
The table below quantitatively presents the evaluation results for each item in mice with bleomycin-induced pulmonary fibrosis, untreated and treated with the test compound.

Compound | wound/damage healing improvement [1] | viability at 1.1 µM [2] [%] | Liver p16 mRNA [3] | Col1a1 mRNA [3] | viability at 1.1 µM [4] [%] | viability at 10 µM [4] [%] | Femur Ctsk mRNA [5] [%] | Heart Sur2a mRNA [5] [fold] | Joint Col2a1 mRNA [5] [fold] | Kidney Agtr1a mRNA [5] [%] | Liver IL6 mRNA [5] [%] | Liver MMP3 mRNA [5] [%] | Liver p16 mRNA [5] [%] | Open Field Test Time in Center [5] [%] | Skin Col1a1 mRNA [5] [Fold] | Skin SDF1 mRNA [5] [fold] | Muscle Mass [5] [g] | Fat Mass [5] [g] | Cataract incidence [5] [%] | Lung p16 mRNA [6] | also measured
COC(=O)[C@]12CCC(C)(C)C[C@H]1[C@H]1C(=O)C=C3[C@@]4(C)C=C(C#N)C(=O)[C@@H](C)[C@@H]4CC[C@@]3(C)[C@]1(C)CC2 [LX-2316] | damage treatment and recovery |  |  |  |  |  |  |  |  |  |  |  |  |  |  |  |  |  |  |  | 
COC(=O)[C@@]1(C)CC[C@]2(C)CC[C@]3(C)[C@H](C(=O)C=C4[C@@]5(C)C=C(C#N)C(=O)C(C)(C)C5CC[C@]43C)[C@@H]2C1 (stereo partly shown) [LX-2513, Soloxolone methyl] | damage treatment and recovery |  |  |  |  |  |  |  |  |  |  |  |  |  |  |  |  |  |  |  | 
Cc1noc([C@]23CCC(C)(C)C[C@H]2[C@H]2C(=O)C=C4[C@@]5(C)C=C(C#N)C(=O)C(C)(C)[C@@H]5CC[C@@]4(C)[C@]2(C)CC3)n1 [LX-2401] | damage treatment and recovery |  |  |  |  |  |  |  |  |  |  |  |  |  |  |  |  |  |  |  | 
C[C@@H]1[C@H]2[C@H]3C(=O)C=C4[C@@]5(C)C=C(C#N)C(=O)C(C)(C)[C@@H]5CC[C@@]4(C)[C@]3(C)CC[C@@]2(CO)CC[C@H]1C [LX-2512] | damage treatment and recovery |  |  |  |  |  |  |  |  |  |  |  |  |  |  |  |  |  |  |  | 
C[C@@H]1C(=O)C(C#N)=C[C@]2(C)C3=CC(=O)[C@@H]4[C@@H]5CC(C)(C)CC[C@]5(CO)CC[C@@]4(C)[C@]3(C)CC[C@@H]12 [LX-2317] | damage treatment and recovery |  |  |  |  |  |  |  |  |  |  |  |  |  |  |  |  |  |  |  | 
C[C@@H](Nc1nc(N[C@H](C)C(F)(F)F)nc(-c2cccc(Cl)n2)n1)C(F)(F)F [LX-8726, Vorasidenib] |  | 52.3 | 36 (±4.3) % | 48 (±4.3) % | 71.7 | 17.5 | 25 | 2.9 | 2.4 | 48 | 25 | 64 | 61 | 276 | 2.8 | 2.7 | 0.81 | 1.20 | 43 | 42 (±2.9) % | Col1a1 mRNA [6]: 58 (±5.3) %
CNC(=O)CC[C@]12CCC(C)(C)C[C@H]1[C@H]1C(=O)C=C3[C@@]4(C)C=C(C#N)C(=O)C(C)(C)[C@@H]4CC[C@@]3(C)[C@]1(C)CC2 [LX-2403] | damage treatment and recovery |  |  |  |  |  |  |  |  |  |  |  |  |  |  |  |  |  |  |  | 
C[S+]([O-])CCCCN=C=S (stereo not shown) [LX-7103, Sulforaphane] |  | 84.3 | 70 (±2.2) % | 68 (±2.9) % | 102 | 37.6 | 65 | 2.1 | 2.3 | 67 | 67 | 79 | 65 | 218 | 2.6 | 2.6 | 0.67 | 0.96 | 69 | 65 (±2.1) % | viability at 10 µM [2]: 7.9%; viability at 30 µM [4]: 4.1%; Col1a1 mRNA [6]: 66 (±4.5) %
[2H]C([2H])([2H])OCC1(CO)C(=O)C2CCN1CC2 (stereo not shown) [LX-5721] |  | 98.5 | 52 (±9.6) % | 80 (±9.3) % | 106 | 17.8 | 63 | 2.7 | 2.0 | 59 | 54 | 72 | 41 | 218 | 1.7 | 1.7 | 0.68 | 0.97 | 71 | 65 (±5.6) % | viability at 10 µM [2]: 45.5%; viability at 30 µM [2]: 13.4%; Col1a1 mRNA [6]: 78 (±4.7) %
CCN(CC1C(=O)C2CCN1CC2)C(=O)C(Cl)(Cl)Cl (stereo not shown) [LX-5702] |  | 97.5 | 72 (±3.9) % | 65 (±7.2) % | 91.8 | 38.1 | 61 | 2.5 | 2.4 | 49 | 49 | 55 | 47 | 211 | 1.8 | 2.0 | 0.70 | 0.85 | 66 | 61 (±6.2) % | viability at 10 µM [2]: 5.2%; viability at 30 µM [4]: 3.9%; Col1a1 mRNA [6]: 68 (±7.5) %
CC1(C)[C@H]2COc3ccc4ccccc4c3[C@H]2N=C2SC(c3ccccc3)=C(c3ccccc3)N21 [LX-5201] |  | 102 | 64 (±8.4) % | 59 (±8.7) % | 102 | 61.5 | 53 | 1.5 | 1.9 | 58 | 43 | 67 | 58 | 168 | 2.1 | 2.3 | 0.77 | 0.97 | 49 | 75 (±4.2) % | viability at 10 µM [2]: 88.3%; viability at 30 µM [2]: 37.7%; viability at 30 µM [4]: 3.8%; Col1a1 mRNA [6]: 74 (±6.3) %
